Laboratory results as given in patent US11426397B2, “Piperidinyl- and piperazinyl-substituted heteroaromatic carboxamides as modulators of GPR6” (TAKEDA PHARMACEUTICAL COMPANY LIMITED, priority 2017, dated 2022).

Target: T1, GPR6 receptor expressed in CHO-K1 cells (Homo sapiens, UniProt P46095)
T1 construct: expressed in transfected cells
Test: In vitro inhibition of cAMP (EC50), cell-based HTRF cAMP assay
Settings: inhibition of constitutive cAMP activity of GPR6 in CHO-K1 cells
Experimental: I. In Vitro Inhibition of cAMP (EC50)
This cell based assay measures the ability of test compounds to inhibit the constitutive cAMP activity of GPR6 receptor expressed in CHO-K1 cells. CHO cells are stably expressed with GPR6 receptor, whose expression is controlled by a tetracycline inducible element. The cells were cultured in medium containing F12K, 10% FBS, 1% Penn/Strep, 200 μg/mL Hygromycin. GPR6 receptor expression is induced for 20 hours with 2 μg/mL doxycycline (Sigma D9891) in growth media. After addition of doxycycline, the cells are plated at a density of 450-750 cells per well in 96-well half-volume black tissue culture plates (Costar) and placed in an incubator (37° C., 5% CO2) for 20 hours prior to cAMP assays.
Culture media is removed from the cells and they are washed with 50 μL/well of Ringer's Buffer (MgCl2 0.047 mg/mL, NaH2PO4 0.18 mg/mL, Na2HPO4 0.1 mg/mL, KCl 0.34 mg/mL, NaHCO3 1.26 mg/mL, D-glucose 1.8 mg/mL, NaCl 7 mg/mL; pH=7.4). The test compounds are suspended in DMSO, diluted in Ringer's Buffer containing 0.5% fatty acid free BSA plus 300 μM IBMX, and incubated on the cells for 45 minutes at 37° C. and 5% CO2. After incubation, the cells are conditioned for 10 minutes at room temp with Eu-cAMP tracer solution from a Perkin Elmer Lance HTRF Ultra cAMP assay kit (TRF0263). Then ULight™-anti-cAMP solution from the Lance HTRF kit is added and incubated on a shaker at room temp for 1 hour prior to HTRF detection in a Perkin Elmer Envision plate reader. EC50 curves are generated with a four-parameter logistic equation using GraphPad Prism 5.03.
Table 1 lists biological assay data (in vitro inhibition of cAMP) for some of the compounds shown in the examples, where larger pEC50 values represent higher activity or potency. All of the compounds shown in Table 1 were tested in accordance with a cell-based assay which measures the ability of test compounds to inhibit the constitutive cAMP activity of GPR6 receptor expressed in CHO-K1 cells (reported as pEC50). The assay is described in the specification under the heading “In vitro inhibition of cAMP (EC50).”

T1 sequence (P46095 whole entry): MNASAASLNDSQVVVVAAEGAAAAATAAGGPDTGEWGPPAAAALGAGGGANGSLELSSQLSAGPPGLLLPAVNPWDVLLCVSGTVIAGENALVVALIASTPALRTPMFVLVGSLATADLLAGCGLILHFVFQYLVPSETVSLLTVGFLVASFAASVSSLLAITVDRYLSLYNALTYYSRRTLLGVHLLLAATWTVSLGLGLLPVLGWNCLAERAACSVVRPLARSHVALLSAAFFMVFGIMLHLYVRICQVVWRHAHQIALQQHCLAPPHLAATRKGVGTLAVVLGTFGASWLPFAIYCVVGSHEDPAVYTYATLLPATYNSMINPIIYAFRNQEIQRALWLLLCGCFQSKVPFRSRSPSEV

Row | SMILES | pEC50, in vitro inhibition of cAMP
1 | COc1nn(C)cc1C(=O)Nc1cc(C#N)cnc1N1CCN(Cc2ccc(Cl)cc2F)CC1 [Example 172, N-(2-(4-(4-chloro-2-fluorobenzyl)piperazin-1-yl)-5-cyanopyridin-3-yl)-3-methoxy-1-methyl-1H-pyrazole-4-carboxamide] | 7.1
2 | N#Cc1ccc(N2CCC(Oc3ccc(F)cc3F)CC2)c(NC(=O)c2cccc3c2OCC3)c1 [Example 27, N-(5-cyano-2-(4-(2,4-difluorophenoxy)piperidin-1-yl)phenyl)-2,3-dihydrobenzofuran-7-carboxamide] | 7.4
3 | Cc1sc2ncc(C(=O)Nc3cc(C#N)ccc3N3CCC(Oc4ccc(F)cc4F)CC3)c(=O)n2c1C [Example 198, N-(5-cyano-2-(4-(2,4-difluorophenoxy)piperidin-1-yl)phenyl)-2,3-dimethyl-5-oxo-5H-thiazolo[3,2-a]pyrimidine-6-carboxamide] | 6.4
4 | COc1nn(C)cc1C(=O)Nc1cc(C#N)ccc1N1CCC(S(=O)(=O)c2cccc(F)c2)CC1 [Example 97, N-(5-cyano-2-(4-((3-fluorphenyl)sulfonyl)piperidin-1-yl)phenyl)-3-methoxy-1-methyl-1H-pyrazole-4-carboxamide] | 6.4
5 | COc1ncccc1C(=O)Nc1cc(C#N)ccc1N1CCN(Cc2ncc(F)cc2F)CC1 [Example 290] | 6.5
6 | COc1ccc(CN2CCN(c3ccc(C#N)cc3NC(=O)c3cccnc3OC)CC2)nc1 [Example 250, N-(5-cyano-2-(4-((5-methoxypyridin-2-yl)methyl)piperazin-1-yl)phenyl)-2-methoxynicotinamide] | 6.0
7 | COc1nn(C)cc1C(=O)Nc1cc(C#N)cnc1N1CCN(Cc2cccc(OC(F)F)c2)CC1 [Example 164, N-(5-cyano-2-(4-(3-(difluoromethoxy)benzyl)piperazin-1-yl)pyridin-3-yl)-3-methoxy-1-methyl-1H-pyrazole-4-carboxamide] | 6.5
8 | COc1c(Cl)ccc(Cl)c1C(=O)Nc1cc(C#N)ccc1N1CCC(Oc2ccc(F)cc2F)CC1 [Example 206, 3,6-dichloro-N-(5-cyano-2-(4-(2,4-difluorophenoxy)piperidin-1-yl)phenyl)-2-methoxybenzamide] | 5.1
9 | COc1ccccc1CN1CCN(c2ccc(C#N)cc2NC(=O)c2cccnc2OC)CC1 [Example 247, N-(5-cyano-2-(4-(2-methoxybenzyl)piperazin-1-yl)phenyl)-2-methoxynicotinamide] | 5.9
10 | N#Cc1ccc(N2CCC(Oc3ccc(F)cc3F)CC2)c(NC(=O)c2cccn(Cc3ccccn3)c2=O)c1 [Example 203, N-(5-cyano-2-(4-(2,4-difluorophenoxy)piperidin-1-yl)phenyl)-2-oxo-1-(pyridin-2-ylmethyl)-1,2-dihydropyridine-3-carboxamide] | 5.6
11 | Cc1ocnc1C(=O)Nc1cc(C#N)ccc1N1CCC(Oc2ccc(F)cc2F)CC1 [Example 127, N-(5-cyano-2-(4-(2,4-difluorophenoxy)piperidin-1-yl)phenyl)-5-methyloxazole-4-carboxamide] | 6.1
12 | CC(C)n1cc(Br)cc(C(=O)Nc2cc(C#N)ccc2N2CCC(Oc3ccc(F)cc3F)CC2)c1=O [Example 182, 5-bromo-N-(5-cyano-2-(4-(2,4-difluorophenoxy)piperidin-1-yl)phenyl)-1-isopropyl-2-oxo-1,2-dihydropyridine-3-carboxamide] | 6.3
13 | N#Cc1ccc(N2CCC(Oc3ccc(F)cc3F)CC2)c(NC(=O)c2cc3n(n2)CCC3)c1 [Example 107, N-(5-cyano-2-(4-(2,4-difluorophenoxy)piperidin-1-yl)phenyl)-5,6-dihydro-4H-pyrrolo[1,2-b]pyrazole-2-carboxamide] | 6.6
14 | N#Cc1ccc(N2CCC(Oc3ccc(F)cc3F)CC2)c(NC(=O)c2ncoc2C2CC2)c1 [Example 111] | 5.5
15 | Cc1ccc(NC(=O)c2cc(F)cnc2O)c(N2CCN(Cc3ccc(F)cc3)CC2)n1 [Example 101, 5-fluoro-N-(2-(4-(4-fluorobenzyl)piperazin-1-yl)-6-methylpyridin-3-yl)-2-hydroxynicotinamide] | 5.9

Second part, the compound after the results:

Row | pEC50, in vitro inhibition of cAMP | SMILES
16 | 6.6 | Cc1nccnc1C(=O)Nc1cc(C#N)ccc1N1CCC(Oc2ccc(F)cc2F)CC1 [Example 115, N-(5-cyano-2-(4-(2,4-difluorophenoxy)piperidin-1-yl)phenyl)-3-methylpyrazine-2-carboxamide]
17 | 6.8 | Cc1cc(C(=O)Nc2cc(C#N)ccc2N2CCC(Oc3ccc(F)cc3F)CC2)nc(C)n1 [Example 135, N-(5-cyano-2-(4-(2,4-difluorophenoxy)piperidin-1-yl)phenyl)-2,6-dimethylpyrimidine-4-carboxamide]
18 | 6.1 | Cc1cnc(C(=O)Nc2cc(C#N)ccc2N2CCC(Oc3ccc(F)cc3F)CC2)c(C)n1 [Example 114, N-(5-cyano-2-(4-(2,4-difluorophenoxy)piperidin-1-yl)phenyl)-3,5-dimethylpyrazine-2-carboxamide]
19 | 7.3 | COc1ccncc1C(=O)Nc1ccc(C)nc1N1CCC(Oc2ccc(F)cc2F)CC1 [Example 62, N-(2-(4-(2,4-difluorophenoxy)piperidin-1-yl)-6-methylpyridin-3-yl)-4-methoxynicotinamide]
20 | 6.7 | COc1ccc(Cl)cc1C(=O)Nc1cc(C#N)ccc1N1CCC(Oc2ccc(F)cc2F)CC1 [Example 211, 5-chloro-N-(5-cyano-2-(4-(2,4-difluorophenoxy)piperidin-1-yl)phenyl)-2-methoxybenzamide]
21 | 7.3 | COc1ccc(F)cc1C(=O)Nc1cc(C#N)ccc1N1CCC(Oc2ccc(F)cc2F)CC1 [Example 210, N-(5-cyano-2-(4-(2,4-difluorophenoxy)piperidin-1-yl)phenyl)-5-fluoro-2-methoxybenzamide]
22 | 6.9 | COc1ccc(C(=O)Nc2cc(C#N)ccc2N2CCC(Oc3ccc(F)cc3F)CC2)c(OC)n1 [Example 78, N-(5-cyano-2-(4-(2,4-difluorophenoxy)piperidin-1-yl)phenyl)-2,6-dimethoxynicotinamide]
23 | 7.1 | COc1ccc(C(=O)Nc2cc(C#N)ccc2N2CCC(Oc3ccc(F)cc3F)CC2)nc1 [Example 133, N-(5-cyano-2-(4-(2,4-difluorophenoxy)piperidin-1-yl)phenyl)-5-methoxypicolinamide]
24 | 7.2 | COc1ncccc1C(=O)Nc1cc(C#N)nnc1N1CCC(Oc2ccc(F)cc2F)CC1 [Example 282, N-(6-cyano-3-(4-(2,4-difluorophenoxy)piperidin-1-yl)pyridazin-4-yl)-2-methoxynicotinamide]
25 | 7.4 | COc1nc(C)ncc1C(=O)Nc1cc(C#N)ccc1N1CCC(Oc2ccc(F)cc2F)CC1 [Example 278]
26 | 6.7 | COc1c(C(=O)Nc2ccc(C#N)nc2N2CCC(Oc3ccc(F)cc3F)CC2)cnn1C [Example 256, N-(6-cyano-2-(4-(2,4-difluorophenoxy)piperidin-1-yl)pyridin-3-yl)-5-methoxy-1-methyl-H-pyrazole-4-carboxamide]
27 | 6.4 | COc1ncccc1C(=O)Nc1cnc(C(=O)N(C)C)nc1N1CCC(Oc2ccc(F)cc2F)CC1 [Example 281, 4-(4-(2,4-difluorophenoxy)piperidin-1-yl)-5-(2-methoxynicotinamido)-N,N-dimethylpyrimidine-2-carboxamide]
28 | 7.3 | COc1ncccc1C(=O)Nc1cc(C#N)c(C(=O)N(C)C)cc1N1CCC(Oc2ccc(F)cc2F)CC1 [Example 273]
29 | 6.9 | COc1ncc(C)cc1C(=O)Nc1cc(C(=O)N(C)C)cnc1N1CCC(Oc2ccc(F)cc2F)CC1 [Example 147, 6-(4-(2,4-difluorophenoxy)piperidin-1-yl)-5-(2-methoxy-5-methylnicotinamido)-N,N-dimethylnicotinamide]
30 | 7.1 | COc1ncncc1C(=O)Nc1cc(C#N)ccc1N1CCC(Oc2ccc(F)cc2F)CC1 [Example 37, N-(5-cyano-2-(4-(2,4-difluorophenoxy)piperidin-1-yl)phenyl)-4-methoxypyrimidine-5-carboxamide]
31 | 7.0 | CCNC(=O)c1cc(N2CCC(Oc3ccc(F)cc3F)CC2)c(NC(=O)c2cccnc2OC)cn1 [Example 252, 4-(4-(2,4-difluorophenoxy)piperidin-1-yl)-N-ethyl-5-(2-methoxynicotinamido)picolinamide]
